Results reported in patent US7538102B2, “Compounds for the treatment of Hepatitis C” (Bristol-Myers Squibb Company, priority 2007, dated 2009).
Like-named read-outs stand apart in the source and are kept apart here.

Columns and labels:
HCV NS5B = target: T1, HCV NS5B (Hepatitis C virus genotype 1b, UniProt Q9WMX2); assay: HCV NS5B RdRp enzyme assay (standard or modified); assay type: biochemical
T1 construct: The protein was expressed with an 18 amino acid C-terminal truncation to enhance the solubility; made in house; host or cells: E. coli BL21(DE3)
T1 sequence (Q9WMX2 2420-2992): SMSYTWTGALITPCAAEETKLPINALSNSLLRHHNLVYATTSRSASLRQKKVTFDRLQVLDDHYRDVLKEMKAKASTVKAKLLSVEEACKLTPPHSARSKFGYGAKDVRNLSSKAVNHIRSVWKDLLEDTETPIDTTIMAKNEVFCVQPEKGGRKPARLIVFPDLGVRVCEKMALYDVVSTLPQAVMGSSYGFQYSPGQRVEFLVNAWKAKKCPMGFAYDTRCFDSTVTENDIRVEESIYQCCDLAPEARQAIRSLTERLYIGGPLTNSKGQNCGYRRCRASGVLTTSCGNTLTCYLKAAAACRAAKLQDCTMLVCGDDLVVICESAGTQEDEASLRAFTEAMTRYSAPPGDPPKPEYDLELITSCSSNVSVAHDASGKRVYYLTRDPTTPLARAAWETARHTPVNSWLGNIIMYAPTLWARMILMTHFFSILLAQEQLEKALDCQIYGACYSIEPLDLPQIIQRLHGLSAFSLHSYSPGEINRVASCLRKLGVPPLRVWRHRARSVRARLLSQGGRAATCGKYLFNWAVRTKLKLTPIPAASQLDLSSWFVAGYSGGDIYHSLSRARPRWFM
Protocol: HCV NS5B RdRp cloning, expression, and purification. The cDNA encoding the NS5B protein of HCV, genotype 1b, was cloned into the pET21a expression vector. The protein was expressed with an 18 amino acid C-terminal truncation to enhance the solubility. The E. coli competent cell line BL21(DE3) was used for expression of the protein. Cultures were grown at 37° C. for ˜4 hours until the cultures reached an optical density of 2.0 at 600 nm. The cultures were cooled to 20° C. and induced with 1 mM IPTG. Fresh ampicillin was added to a final concentration of 50 μg/ml and the cells were grown overnight at 20° C.
Cell pellets (3 L) were lysed for purification to yield 15-24 mgs of purified NS5B. The lysis buffer consisted of 20 mM Tris-HCl, pH 7.4, 500 mM NaCl, 0.5% triton X-100, 1 mM DTT, 1mM EDTA, 20% glycerol, 0.5 mg/ml lysozyme, 10 mM MgCl2, 15 ug/ml deoxyribonuclease I, and Complete TM protease inhibitor tablets (Roche). After addition of the lysis buffer, frozen cell pellets were resuspended using a tissue homogenizer. To reduce the viscosity of the sample, aliquots of the lysate were sonicated on ice using a microtip attached to a Branson sonicator. The sonicated lysate was centrifuged at 100,000×g for 1 hr at 4° C. and filtered through a 0.2 μm filter unit (Corning).
The protein was purified using two sequential chromatography steps: Heparin sepharose CL-6B and polyU sepharose 4B (Pharmacia). The chromatography buffers were identical to the lysis buffer but contained no lysozyme, deoxyribonuclease I, MgCl2 or protease inhibitor and the NaCl concentration of the buffer was adjusted according to the requirements for charging the protein onto the column. Each column was eluted with a NaCl gradient which varied in length from 5-50 column volumes depending on the column type. After the final chromatography step, the resulting purity of the enzyme is >90% based on SDS-PAGE analysis. The enzyme was aliquoted and stored at −80° C.
Standard HCV NS5B RdRp enzyme assay. HCV RdRp genotype 1b assays were run in a final volume of 60 μl in 96 well plates (Corning 3600). The assay buffer is composed of 20 mM Hepes, pH 7.5, 2.5 mM KCl, 2.5 mM MgCl2, 1 mM DTT, 1.6 U RNAse inhibitor (Promega N2515), 0.01 mg/ml BSA (Sigma B6917), and 2% glycerol. All compounds were serially diluted (3-fold) in DMSO and diluted further in water such that the final concentration of DMSO in the assay was 2%. HCV RdRp genotype 1b enzyme was used at a final concentration of 28 nM. A polyA template was used at 6 nM, and a biotinylated oligo-dT12 primer was used at 180 nM final concentration. Template was obtained commercially (Amersham 27-4110). Biotinylated primer was prepared by Sigma Genosys. 3H-UTP was used at 0.6 μCi (0.29 μM total UTP). Reactions were initiated by the addition of enzyme, incubated at 30° C. for 60 min, and stopped by adding 25 μl of 50 mM EDTA containing SPA beads (4 μg/pl, Amersham RPNQ 0007). Plates were read on a Packard Top Count NXT after >1 hr incubation at room temperature.
Modified HCV NS5B RdRp enzyme assay. A modified enzyme assay was performed essentially as described for the standard enzyme assay except for the following: The biotinylated oligo dT12 primer was precaptured on streptavidin-coated SPA beads by mixing primer and beads in assay buffer and incubating at room temperature for one hour. Unbound primer was removed after centrifugation. The primer-bound beads were resuspended in 20 mM Hepes buffer, pH 7.5 and used in the assay at final concentrations of 20 nM primer and 0.67 μg/μl beads. Order of addition in the assay: enzyme (1.75 nM) was added to diluted compound followed by the addition of a mixture of template (0.36 nM), 3H-UTP (0.6 μCi, 0.29 μM), and primer-bound beads, to initiate the reaction; concentrations given are final. Reactions were allowed to proceed for 4 hours at 30° C.
IC50 values for compounds were determined using seven different [I]. […]

HCV replicon = HCV replicon FRET / luciferase assay; assay type: cell-based; details: Hepatitis C virus
Protocol: FRET Assay Preparation. The HCV FRET screening assay was performed in 96-well cell culture plates. The FRET peptide (Anaspec, Inc.) (Taliani et al., Anal. Biochem. 1996, 240, 60-67) contains a fluorescence donor, EDANS, near one end of the peptide and an acceptor, DABCYL, near the other end. The fluorescence of the peptide is quenched by […] resonance energy transfer (RET) between the donor and the acceptor, but as the NS3 protease cleaves the peptide the products are released from RET quenching and the fluorescence of the donor becomes apparent. The assay reagent was made as follows: 5× cell Luciferase cell culture lysis reagent from Promega (#E153A) diluted to 1× with dH2O, NaCl added to 150 mM final, the FRET peptide diluted to 20 μM final from a 2 mM stock.
To prepare plates, HCV replicon cells, with or without a Renilla luciferase reporter gene, were trypsinized and plated in a 96-well plate with titrated test compounds added in columns 3 through 12; columns 1 and 2 contained a control compound (HCV control inhibitor), and the bottom row contained cells with DMSO only. The plates were then placed in a CO2 incubator at 37° C.
Assays. Subsequent to addition of the test compounds described above (FRET Assay Preparation), at various times the plate was removed and Alamar blue solution (Trek Diagnostics, #00-100) was added to measure cellular toxicity. After reading in a Cytoflour 4000 instrument (PE Biosystems), plates were rinsed with PBS and then used for FRET assay by the addition of 30 ul of the FRET peptide assay reagent described above (FRET Assay Preparation) per well. The plate was then placed into the Cytoflour 4000 instrument which had been set to 340 excite/490 emission, automatic mode for up to 20 cycles and the plate read in a kinetic mode. Typically, the signal to noise using an endpoint analysis after the reads was at least three-fold. Alternatively, after Alamar blue reading, plates were rinsed with PBS, then used for luciferase assay using the Promega Dual-Glo Luciferase Assay System or the Promega EnduRen Live Cell Substrate assay.
Compound analysis was performed by quantification of the relative HCV replicon inhibition and the relative cytotoxicity values. To calculate cytoxicity values, the average Alamar Blue fluorescence signals from the control wells were set as 100% non-toxic. The individual signals in each of the compound test wells were then divided by the average control signal and multiplied by 100% to determine […]. To calculate the HCV replicon inhibition values, an average background value was obtained from the two wells containing the highest amount of HCV control inhibitor at the end of the assay period. These numbers were similar to those obtained from naive Huh-7 cells. The background numbers were then subtracted from the average signal obtained from the control wells and this number was used as 100% activity. The individual signals in each of the compound test wells were then divided by the averaged control values after background subtraction and multiplied by 100% to determine percent activity. EC50 values were calculated as the concentration which caused a 50% reduction in FRET or luciferase activity. The two numbers generated for the compound plate, percent cytoxicity and percent activity, were used to determine compounds of interest for further analysis.

[1] = HCV NS5B RdRp genotype 1b, standard or modified enzyme assay not specified, read-out: IC50
[2] = HCV replicon cells, 50% reduction in FRET or luciferase activity, read-out: EC50

## COc1ccc2c(c1)C1CC1(C(=O)N(C)C1CC3CCC1N3C)Cn1c-2c(C2CCCCC2)c2ccc(C(=O)NS(=O)(=O)N(C)C)cc21 (centres unmarked)
HCV NS5B
  IC50: 3 to 1000 nM
HCV replicon
  EC50: 3 to 1000 nM

## COc1ccc2c(c1)C1CC1(C(=O)N1CCN(C)CC1c1ccccc1)Cn1c-2c(C2CCCCC2)c2ccc(C(=O)NS(=O)(=O)N(C)C)cc21 (centres unmarked) [drawing 44]
HCV NS5B; [1]
  IC50: 3 to 1000 nM
HCV replicon; [2]
  EC50: 3 to 1000 nM

## COc1ccc2c(c1)C1CC1(C(=O)N(C)C1CCN(C)C1)Cn1c-2c(C2CCCCC2)c2ccc(C(=O)NS(=O)(=O)N(C)C)cc21 (centres unmarked)
HCV NS5B; [1]
  IC50: 3 to 1000 nM
HCV replicon; [2]
  EC50: 3 to 1000 nM

## COc1ccc2c(c1)C1CC1(C(=O)N1CCC[C@H]1CN1CCCC1)Cn1c-2c(C2CCCCC2)c2ccc(C(=O)NS(=O)(=O)C3CC3)cc21 (some centres unmarked)
HCV NS5B; [1]
  IC50: 3 to 1000 nM
HCV replicon; [2]
  EC50: 3 to 1000 nM

## COc1ccc2c(c1)C1CC1(C(=O)N(C)CC(=O)N1CCOCC1)Cn1c-2c(C2CCCCC2)c2ccc(C(=O)NS(=O)(=O)N(C)C)cc21 (centres unmarked)
HCV NS5B; [1]
  IC50: 3 to 1000 nM
HCV replicon; [2]
  EC50: 3 to 1000 nM

## COc1ccc2c(c1)C1CC1(C(=O)O[C@@H]1C[C@@H]3CC[C@@]1(C)C3(C)C)Cn1c-2c(C2CCCCC2)c2ccc(C(=O)NS(=O)(=O)N(C)C)cc21 (some centres unmarked)
HCV NS5B; [1]
  IC50: 3 to 1000 nM
HCV replicon; [2]
  EC50: > 1000 nM

## COc1ccc2c(c1)C1CC1(C(=O)N1CCN(C)CC1c1ccccc1)Cn1c-2c(C2CCCCC2)c2ccc(C(=O)NS(=O)(=O)C(C)C)cc21 (centres unmarked) [drawing 74]
HCV NS5B; [1]
  IC50: 3 to 1000 nM
HCV replicon; [2]
  EC50: 3 to 1000 nM

## COc1ccc2c(c1)C1CC1(C(=O)NC1CC3CCC(C1)N3C)Cn1c-2c(C2CCCCC2)c2ccc(C(=O)NS(=O)(=O)N(C)C)cc21 (centres unmarked)
HCV NS5B
  IC50: 3 to 1000 nM
HCV replicon
  EC50: 3 to 1000 nM

## COc1ccc2c(c1)C1CC1(C(=O)N1CCNC(c3ccc(Cl)cc3)C1)Cn1c-2c(C2CCCCC2)c2ccc(C(=O)NS(=O)(=O)N(C)C)cc21 (centres unmarked)
HCV NS5B; [1]
  IC50: 3 to 1000 nM
HCV replicon; [2]
  EC50: 3 to 1000 nM

## COc1ccc2c(c1)C1CC1(C(=O)N1CCCN(C(=O)OC(C)(C)C)CC1)Cn1c-2c(C2CCCCC2)c2ccc(C(=O)NS(=O)(=O)N3CCC3)cc21 (centres unmarked)
HCV NS5B; [1]
  IC50: 3 to 1000 nM
HCV replicon; [2]
  EC50: 3 to 1000 nM

## COc1ccc2c(c1)C1CC1(C(=O)N[C@@H]1CCC[C@H]1N(C)C)Cn1c-2c(C2CCCCC2)c2ccc(C(=O)NS(=O)(=O)N(C)C)cc21 (some centres unmarked)
HCV NS5B; [1]
  IC50: 3 to 1000 nM
HCV replicon; [2]
  EC50: 3 to 1000 nM

## COc1ccc2c(c1)C1CC1(C(=O)N(C)CCN1CCCC1)Cn1c-2c(C2CCCCC2)c2ccc(C(=O)NS(=O)(=O)N(C)C)cc21 (centres unmarked)
HCV NS5B; [1]
  IC50: 3 to 1000 nM
HCV replicon; [2]
  EC50: 3 to 1000 nM

## COc1ccc2c(c1)C1CC1(C(=O)N[C@@H]1CC3CCN1CC3)Cn1c-2c(C2CCCCC2)c2ccc(C(=O)NS(=O)(=O)N(C)C)cc21 (some centres unmarked)
HCV NS5B
  IC50: 3 to 1000 nM
HCV replicon
  EC50: 3 to 1000 nM
